This note sets out measurements from patent US9265751B2, “Methods for treating chronic pain” (Nagasaki University, priority 2008, dated 2016).

Entries after “also recorded” stand apart in the source; their conditions may differ.

Common to all, as to assay type: in vivo, mouse
The test system of one data set is LPA1 receptor. The data set is described as follows: Mechanical stimulus-induced pain test (digitized von Frey) in SART (ICS) stress mice given LPA1 AS-ODN/MS-ODN i.c.v. The procedure: Exposure to SART (ICS) stress was achieved by repeatedly altering extremely different rearing environmental temperatures. Temperature settings were established at room temperature (24° C.) and cold temperature (4° C.). Rearing cages were placed in environments set at the respective temperatures; the animals were reared, with transfer of the mice only every 30 minutes in the daytime (from 10:00 to 16:30), and at the cold temperature in the nighttime (from 16:30 to 10:00 on the following day). This repeated stress was given for 3 days from 16:30 on the day before stress loading to 10:00 on day 3 of stress loading. A solid food and agar for water supply were always kept in the cage during the above-described stress loading period, to maintain an environment allowing the animals to have free access thereto.
A hypersensitive response induction experiment with ICS stress was applied to mice previously dosed with an antisense oligodeoxynucleotide that complementarily binds to the lysophosphatidic acid (hereinafter, denoted as LPA) receptor gene to inhibit the expression thereof (hereinafter, denoted as AS-ODN) as an animal model of generalized pain disease, and the stress exposure of Production Example 1 was performed.
Ten to twelve C57BL/6J mice at 6 weeks of age (20 to 22 g) were used in a normal control group and an ICS stress loading group.
Using “5′-[…]-3′ (SEQ ID NO:5)” as AS-ODN, BLAST search was performed; it was confirmed that the sequence thereof was specific for the LPA1 receptor. For comparative control, mice dosed with a missense oligodeoxynucleotide having a noncomplementary sequence (hereinafter, denoted as MS-ODN) and mice dosed with artificial cerebro-spinal fluid (ACSF) as Vehicle were used. Using “5′-[…]-3′ (SEQ ID NO:6)” as MS-ODN, BLAST search was performed; it was confirmed that the sequence thereof was not similar to other receptors.
SART (ICS) stress based on Production Example 1 above was loaded on the mice after being given ODN and ACSF, after which pain threshold values were measured, and changes over days were examined.
In Example 3, chronic pains were evaluated on mice loaded with stress based on Production Example and Examples. Regarding how to evaluate chronic pains, pain threshold values were evaluated over days by a mechanical stimulus-induced pain test. The mechanical stimulus-induced pain test was performed according to the digitized von Frey method.
AS-ODN was given by intracerebroventricular administration at 10 μg once daily, starting five days before SART (ICS) stress loading. After pretreatment for 5 consecutive days, SART (ICS) stress was started, and intracerebroventricular administration was performed once a day even during the stress loading period. However, there was no administration on day 3 of stress loading, after which administration was discontinued; a total of 7 administrations were performed. The single-dose volume was 5 μl.
In the same way as the above-described method of treatment, MS-ODN and Vehicle were administered 7 times in total before stress loading and during the stress loading period.
On mice acclimated to the environment on a 5 mm×5 mm-mesh net (adaptation-applied), a custom-made plastic chip was applied to a planta of each mouse under a constant pressure from below. At that time, responding weight threshold values were measured digitally.

The next data set has as its system LPA2 receptor. The data set is described as follows: Mechanical stimulus-induced pain test (digitized von Frey) in SART (ICS) stress mice given LPA2 AS-ODN/MS-ODN i.c.v.
Another data set relates to ATX. The data set is described as follows: Mechanical nociception test (automated digitized von Frey) in ICS stress mice given ATX-AS/ATX-MS i.c.v. The conditions noted are these: P1 to P12 after ICS stress; 10 μg/5 μl i.c.v. The protocol:
ATX-antisense is a drug that suppresses the synthesis of the mRNA of ATX, an LPA synthetase. The ATX-antisense (ATX-AS) used was designed to have the base sequence: “5′-GTCTTGCCATGCCGAGGGAT-3′ (SEQ ID NO:13)”, and the ATX-missense (ATX-MS) used was designed to have the base sequence: “5′-GTTCTCGCAGTCGCAGGAGT-3′ (SEQ ID NO:14)”. The dosage was 10 μg/5 μl both for the antisense and for the missense.
ATX-antisense (operon, 3170003) was given by intracerebroventricular administration on consecutive days starting five days previously, including days of stress loading (FIG. 8A). Doses were given in solution in artificial cerebro-spinal fluid. For control groups, the same amounts of ATX-missense (operon, 3170004) and the solvent were administered, respectively. […]
(§1) Prior to the experiment, each mouse was placed on a rack on a mesh and covered with a cage from above, and the animal was acclimated to the same environment as the experiment for not less than 1 hour. The tip of a plastic chip was pressed vertically against the center of a hind paw of the mouse from below the rack; when the mouse behaved to withdraw the hind leg, the automatically measured value was read. […]
(§2) With the day of completion of ICS loading as P1, pain threshold values were measured on P3, P5, P12 and P19.

In data set [1] the test system is PLA2. The data set is described as follows: Mechanical nociception test (automated digitized von Frey) in ICS stress mice given BEL i.c.v. As to conditions: between P1 and P5, significant change at P3, two doses. The protocol: (§3) As a PLA2 inhibitor, Bromoenol lactone (Cayman chemical) was used. Drug administration was performed twice in total at 10 a.m. before performing repeated cold stimulation in stress loading (FIG. 9A).
(§4) The whole amount of 5 mg of the drug was dissolved in 200 μl of DMSO and dispensed at 20 nmol/10 μl. 384 μl of artificial cerebro-spinal fluid was added thereto. For a control group, the same amounts of DMSO and artificial cerebro-spinal fluid were mixed and administered. Using a 50 μl Hamilton microsyringe and a needle-equipped cannula, a total volume of 5 μl was given by intracerebroventricular administration. A 26-gauge needle for intracerebroventricular administration was used.
(§5) To create a mouse model of fibromyalgia, ICS (Intermittent Cold Stress) was loaded. […]
as §1, §2

In data set [2] the test system is PLA2. The data set is described as follows: Thermal nociception test (Hargreaves) in ICS stress mice given BEL i.c.v. The conditions noted are these: between P1 and P5, significant change at P3, two doses. The procedure:
as §3, §4, §5
Prior to the experiment, each mouse was placed on a glass plate and covered with a cage from above, and the animal was acclimated to the same environment as the experiment for not less than 1 hour. A thermal stimulus was given to a hind paw of the mouse; when the mouse behaved to escape the stimulus, the automatically measured value was read. […]
as §2

The mark [3] stands for this setting: SART (ICS) stress loading group, day 1 of stress loading, 10 μg i.c.v. once daily.
Where [4] appears, read: SART (ICS) stress loading group, day before stress loading, 10 μg i.c.v. once daily.
[5] abbreviates: SART (ICS) stress loading group, pretreated i.c.v.
Where [6] appears, read: SART (ICS) stress loading group.
Setting [7] is: treated normal control group (no stress), day 1 of stress loading.

Take “5′-AGCTGCCATGACAGTGCTGT-3′ (DNA, backbone and methylation of C not given here) [LPA1 AS-ODN]”: the “pain threshold value (PWT)” value in the data set on LPA1 receptor (setting [3]) was 8.76 ± 0.5 g; in the data set with LPA1 receptor (setting [4]), 9.77 ± 0.4 g. Further, the “hypersensitive response / chronic pain after SART (ICS) stress, measured over days” value in the data set on LPA1 receptor (setting [5]) was “no hypersensitive responses were noted; also recorded: suppressed”. Also, the “threshold values of treated normal control group versus Vehicle and LPA1 MS-ODN groups” value in the data set on LPA1 receptor (normal control group (no stress)) was “comparable”.

Take “5′-CGATACACTAGAACGCTCGA-3′ (DNA, backbone and methylation of C not given here) [MS-ODN]”: the “persistence of hypersensitive response” value with LPA1 receptor (setting [6]) and in the data set on LPA2 receptor (setting [6]) was “at least 19 days” each time. Besides, the “pain threshold value (PWT)” value in the data set with LPA1 receptor (setting [3]) stood at 5.68 ± 0.7 g; in the data set on LPA1 receptor (setting [4]) it was 9.59 ± 0.3 g; with LPA1 receptor (setting [7]), 9.49 ± 0.2 g; in the data set on LPA2 receptor (setting [3]), 5.79 ± 0.1 g; in the data set with LPA2 receptor (setting [4]) it was 9.58 ± 0.3 g; in the data set with LPA2 receptor (setting [7]), 9.65 ± 0.3 g.

Regarding “5′-GTTCTCGCAGTCGCAGGAGT-3′ (DNA GTTCTCGCAGTCGCAGGAGT; listed as DNA, chemistry not given here) [ATX-MS, ATX missense control oligonucleotide]”, the “mechanical nociceptive response threshold values after ICS stress loading” value with ATX was “significant reductions”.

Take “5′-TACTACAACGAGACCATCGG-3′ (DNA, backbone and methylation of C not given here) [LPA2 AS-ODN]”: the “persistence of hypersensitive response” value in the data set with LPA2 receptor (setting [6]) was “at least 19 days”. Also, the “pain threshold value (PWT)” value with LPA2 receptor (setting [3]) was 6.43 ± 0.1 g; with LPA2 receptor (setting [4]), 9.77 ± 0.5 g. Also, the “suppression of SART (ICS) stress-induced pains” value in the data set with LPA2 receptor (setting [5]) is reported as “no suppression”.

In the case of `O=C1O/C(=C/Br)CCC1c1cccc2ccccc12` (stereo not shown) [BEL, Bromoenol lactone], the “reductions of mechanical nociceptive response threshold values due to ICS stress” value with PLA2 [1] is listed as “tended to be suppressed”. In addition, the “thermal hyperalgesia due to ICS stress” value in the data set with PLA2 [2] is given as “tended to be suppressed”.
